# Data taken from ChEMBL document CHEMBL1156622, “1,3,4-Oxadiazole-3(2H)-carboxamide derivatives as potential novel class of monoamine oxidase (MAO) inhibitors: synthesis, evaluation, and role of urea moiety” (Bioorg Med Chem, 2008).
# Tests used:
# Rattus norvegicus [1] = organism: Rattus norvegicus; test: Inhibition of Monoamine oxidase in rat brain mitochondria at 1 mM by kynuramine fluorimetric assay
# Rattus norvegicus [2] = organism: Rattus norvegicus; test: Inhibition of Monoamine oxidase in rat brain mitochondria at 0.01 mM by kynuramine fluorimetric assay
# Rattus norvegicus [3] = organism: Rattus norvegicus; test: Inhibition of Monoamine oxidase in rat brain mitochondria at 0.1 mM by kynuramine fluorimetric assay
# Rattus norvegicus [4] = organism: Rattus norvegicus; test: Inhibition of Monoamine oxidase in rat brain mitochondria at 0.008 mM by kynuramine fluorimetric assay
# Rattus norvegicus [5] = organism: Rattus norvegicus; test: Inhibition of Monoamine oxidase in rat brain mitochondria at 0.08 mM by kynuramine fluorimetric assay
# Rattus norvegicus [6] = organism: Rattus norvegicus; test: Inhibition of Monoamine oxidase in rat brain mitochondria at 0.8 mM by kynuramine fluorimetric assay
inhibition (Rattus norvegicus [1]) [%],inhibition (Rattus norvegicus [2]) [%],inhibition (Rattus norvegicus [3]) [%],inhibition (Rattus norvegicus [4]) [%],inhibition (Rattus norvegicus [5]) [%],inhibition (Rattus norvegicus [6]) [%],Compound
75.4,6.73,27.5,,,,CCCCC1(CCCC)OC(c2ccc3c(c2)OCO3)=NN1C(=O)NC(=O)c1ccccc1Cl
69.2,5.85,26.2,,,,CCCCC1(CCCC)OC(c2cc(C)cc(C)c2)=NN1C(=O)NC(=O)c1c(F)cccc1F
,,,0,0,0,CCCCC1(CCCC)OC(c2cc(OC)c(OC)c(OC)c2)=NN1C(C)=O
75.1,1.84,23.7,,,,CCCCC1(CCCC)OC(c2ccco2)=NN1C(=O)NC(=O)c1c(F)cccc1F
58.8,0,6.03,,,,CCCCC1(CCCC)OC(c2ccc(Cl)cc2)=NN1C(=O)NC(=O)c1c(F)cccc1F
,,,1.21,0,0,CCCCC1(CCCC)OC(c2ccc3c(c2)OCO3)=NN1C(C)=O
78,5.86,24.9,,,,CCCCC1(CCCC)OC(c2ccc(Cl)cc2Cl)=NN1C(=O)NC(=O)c1ccccc1Cl
81.8,2.92,25.9,,,,CCCCC1(CCCC)OC(c2ccc(Cl)cc2Cl)=NN1C(=O)NC(=O)c1cc(F)c(OC)c(F)c1F
78.4,8.37,41,,,,CCCCC1(CCCC)OC(c2ccc3c(c2)OCO3)=NN1C(=O)NC(=O)c1c(F)cccc1F
,,,2.89,17.7,42.8,CCCCC1(CCCC)OC(c2cc(C)cc(C)c2)=NN1C(C)=O
69.2,0,21.7,,,,CCCCC1(CCCC)OC(c2cc(OC)c(OC)c(OC)c2)=NN1C(=O)NC(=O)c1c(F)cccc1F
72.8,4.12,24.6,,,,CCCCC1(CCCC)OC(c2cc(C)cc(C)c2)=NN1C(=O)NC(=O)c1ccccc1Cl
72.5,5.43,25.1,,,,CCCCC1(CCCC)OC(c2ccc(Cl)cc2Cl)=NN1C(=O)NC(=O)c1c(F)cccc1F
